# Earlier results in patent US20170128486A1, “CONSUMABLE COMPOSITIONS AND USES THEREOF FOR ALLEVIATING UNDESIRABLE PHYSIOLOGICAL EFFECTS SYSTEMS” (ImmunoL0G1C R&D Inc., priority 2015, published 2017).
solubility in water,solubility (in water) [µg/mL],Structure (SMILES)
poorly soluble in water,,N[C@@H](Cc1c[nH]c2ccccc12)C(=O)O [L-tryptophan]
,10000,N[C@@H](Cc1c[nH]c2ccc(O)cc12)C(=O)O [5-hydroxytryptophan]
